biological target: T1, PDGFRα (Homo sapiens, UniProt P16234); experiment: Caliper biochemical assay, PDGFRα; conditions: Table 6
T1 construct: purchased Millipore 14-467 (lot 26321_ACTI)
Description: (§1) Enzyme, substrate, and cofactors (ATP and Mn^2+) are combined in a well of a microtiter plate and incubated for 3 hours at 25° C. At the end of the incubation, the reaction is quenched by the addition of an EDTA-containing buffer. Substrate and product are separated electrophoretically using the microfluidic-based LabChip 3000 Drug Discovery System from Caliper Life Sciences* and quantitated by fluorescence intensity.
(§2) The substrate used in the CSF-1R and PDGFRα assay is FAM-[…]-CONH2 (FAM is carboxyfluorescein). Peptide should be >95% purity. The substrate for the KIT assay is FAM-[…]-NH2.
(§3) • 1. To a well of a 384-well plate add 5 μL of 2× enzyme buffer (or control) • 2. Add 100 nL of 100× compound. • 3. Add 5 μL of 2× substrate buffer. • 4. Incubate plate at 25° C. for 3 hours. • 5. Add 10 uL of […]. • 6. Read plate LabChip 3000 Drug Discovery System
(§4) • 3 hours at 25° C. where 100% Inhibitor: No enzyme.

T1 sequence (P16234 24-1089): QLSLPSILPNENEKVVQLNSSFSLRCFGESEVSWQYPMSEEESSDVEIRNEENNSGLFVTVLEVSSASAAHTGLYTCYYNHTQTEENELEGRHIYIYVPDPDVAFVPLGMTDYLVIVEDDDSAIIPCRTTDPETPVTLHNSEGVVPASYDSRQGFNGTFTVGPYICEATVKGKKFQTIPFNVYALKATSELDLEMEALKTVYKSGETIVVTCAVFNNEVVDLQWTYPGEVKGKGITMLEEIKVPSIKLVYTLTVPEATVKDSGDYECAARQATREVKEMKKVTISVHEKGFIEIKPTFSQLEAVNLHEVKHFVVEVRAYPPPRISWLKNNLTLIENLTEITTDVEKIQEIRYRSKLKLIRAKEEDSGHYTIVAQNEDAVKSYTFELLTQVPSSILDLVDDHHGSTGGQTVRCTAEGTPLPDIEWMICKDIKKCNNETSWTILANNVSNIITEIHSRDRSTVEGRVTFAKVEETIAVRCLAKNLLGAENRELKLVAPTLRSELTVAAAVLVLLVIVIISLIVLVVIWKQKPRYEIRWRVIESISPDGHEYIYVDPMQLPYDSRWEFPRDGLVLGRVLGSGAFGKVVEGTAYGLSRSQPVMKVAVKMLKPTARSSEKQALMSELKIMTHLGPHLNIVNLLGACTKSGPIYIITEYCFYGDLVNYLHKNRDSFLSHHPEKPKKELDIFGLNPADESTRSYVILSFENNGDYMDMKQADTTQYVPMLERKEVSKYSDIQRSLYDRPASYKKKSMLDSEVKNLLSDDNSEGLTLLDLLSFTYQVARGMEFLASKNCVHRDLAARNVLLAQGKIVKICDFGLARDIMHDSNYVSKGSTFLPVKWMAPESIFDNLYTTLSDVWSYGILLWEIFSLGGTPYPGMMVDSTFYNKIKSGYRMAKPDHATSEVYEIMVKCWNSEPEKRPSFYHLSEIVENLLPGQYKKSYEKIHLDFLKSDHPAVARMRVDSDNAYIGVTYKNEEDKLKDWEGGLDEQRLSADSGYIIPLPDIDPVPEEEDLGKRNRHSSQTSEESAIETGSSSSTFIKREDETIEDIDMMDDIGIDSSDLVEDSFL

Row | Structure (SMILES) | IC50
1 | Cc1ccc(-c2noc([C@H](C)NS(C)(=O)=O)n2)cc1NC(=O)c1cnc2ccccn12 [Compound I-147] | 5000 to 30000 nM
2 | Cc1ccc(-c2noc([C@@H]3CCN3S(=O)(=O)c3ccccc3)n2)cc1NC(=O)c1cnc2ccccn12 [Compound I-186] | 500 to 5000 nM
3 | O=C(Nc1cc(-c2noc([C@H]3CC(F)(F)CN3)n2)ccc1Cl)c1cnc2ccccn12 [Compound I-192] | 500 to 5000 nM
4 | COC(=O)CS(=O)(=O)N1CCC1c1nc(-c2ccc(C)c(NC(=O)c3cnc4ccccn34)c2)no1 (stereo not drawn) [Compound I-197] | 500 to 5000 nM
5 | Cc1ccc(-c2noc([C@H]3C[C@@H]3F)n2)cc1NC(=O)c1cnc2ccc(N3CCC3)cn12 [Compound I-291] | 50 to 500 nM
6 | Cc1ccc(-c2noc([C@H]3C[C@@H]3F)n2)cc1NC(=O)c1cnc2cc(N3CCCCC3)ccn12 [Compound I-305] | 50 to 500 nM

The next lines start with the values.

Row | IC50 | Structure (SMILES)
7 | 50 to 500 nM | Cc1nc(-c2ccc(C)c(NC(=O)c3cnc4ccc(NCCO)cn34)c2)no1 [Compound I-176]
8 | 50 to 500 nM | Cc1ccc(-c2noc([C@@H]3CCN3S(=O)(=O)C3CCOCC3)n2)cc1NC(=O)c1cnc2ccccn12 [Compound I-187]
9 | 50 to 500 nM | COC(=O)CS(=O)(=O)N1CC[C@H]1c1nc(-c2ccc(C)c(NC(=O)c3cnc4ccccn34)c2)no1 [Compound I-188]
10 | 50 to 500 nM | Cc1ccc(-c2noc([C@H]3CCN3C3CCC3)n2)cc1NC(=O)c1cnc2ccccn12 [Compound I-193]
11 | 50 to 500 nM | Cc1ccc(-c2noc([C@H]3CCN3C(C)C)n2)cc1NC(=O)c1cnc2ccccn12 [Compound I-194]
12 | 50 to 500 nM | Cc1ccc(-c2noc([C@H]3CCN3S(=O)(=O)C3CCOCC3)n2)cc1NC(=O)c1cnc2ccccn12 [Compound I-196]
13 | ≤ 50 nM | Cc1ccc(-c2noc([C@H]3C[C@@H]3F)n2)cc1NC(=O)c1cnc2cc(Nc3ccc4c(c3)OCCO4)ccn12 [Compound I-301]
14 | ≤ 50 nM | Cc1ccc(Nc2ccn3c(C(=O)Nc4cc(-c5noc([C@H]6C[C@@H]6F)n5)ccc4C)cnc3c2)cc1 [Compound I-302]
15 | ≤ 50 nM | Cc1ccc(-c2noc(C34CCC(CC3)CC4)n2)cc1NC(=O)c1cnc2ccccn12 [Compound I-311]

tested on: not listed separately; experiment: Kinetic solubility assay; format: physicochemical; conditions: kinetic solubility, 50 mM PB (pH 7.4), shaken 24 hours at RT
Method in brief: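 Concentration in the filtrate was determined by UPLC-UV or HPLC-UV with a standard curve. Before that, compound (10 mM DMSO stock) in 50 mM PB at pH 7.4 was agitated 24 h at room temperature, then PTFE-filtered with centrifugation.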

Row | Structure (SMILES) | Solubility (μM)
16 | Cc1ccc(-c2noc([C@H](C)NS(C)(=O)=O)n2)cc1NC(=O)c1cnc2ccccn12 [Compound I-147] | ** (a solubility greater than 10 μM and less than or equal to 50 μM)
17 | Cc1nc(-c2ccc(C)c(NC(=O)c3cnc4ccc(NCCO)cn34)c2)no1 [Compound I-176] | ** (a solubility greater than 10 μM and less than or equal to 50 μM)
18 | Cc1ccc(-c2noc([C@@H]3CCN3S(=O)(=O)c3ccccc3)n2)cc1NC(=O)c1cnc2ccccn12 [Compound I-186] | *** (a solubility greater than 2 μM and less than or equal to 10 μM)
19 | Cc1ccc(-c2noc([C@@H]3CCN3S(=O)(=O)C3CCOCC3)n2)cc1NC(=O)c1cnc2ccccn12 [Compound I-187] | ** (a solubility greater than 10 μM and less than or equal to 50 μM)
20 | COC(=O)CS(=O)(=O)N1CC[C@H]1c1nc(-c2ccc(C)c(NC(=O)c3cnc4ccccn34)c2)no1 [Compound I-188] | *** (a solubility greater than 2 μM and less than or equal to 10 μM)
21 | O=C(Nc1cc(-c2noc([C@H]3CC(F)(F)CN3)n2)ccc1Cl)c1cnc2ccccn12 [Compound I-192] | **** (a solubility less than or equal to 2 μM)
22 | Cc1ccc(-c2noc([C@H]3CCN3C3CCC3)n2)cc1NC(=O)c1cnc2ccccn12 [Compound I-193] | **** (a solubility less than or equal to 2 μM)
23 | Cc1ccc(-c2noc([C@H]3CCN3C(C)C)n2)cc1NC(=O)c1cnc2ccccn12 [Compound I-194] | *** (a solubility greater than 2 μM and less than or equal to 10 μM)
24 | Cc1ccc(-c2noc([C@H]3CCN3S(=O)(=O)C3CCOCC3)n2)cc1NC(=O)c1cnc2ccccn12 [Compound I-196] | ** (a solubility greater than 10 μM and less than or equal to 50 μM)
25 | COC(=O)CS(=O)(=O)N1CCC1c1nc(-c2ccc(C)c(NC(=O)c3cnc4ccccn34)c2)no1 (stereo not drawn) [Compound I-197] | *** (a solubility greater than 2 μM and less than or equal to 10 μM)
26 | Cc1ccc(-c2noc([C@H]3C[C@@H]3F)n2)cc1NC(=O)c1cnc2ccc(N3CCC3)cn12 [Compound I-291] | *** (a solubility greater than 2 μM and less than or equal to 10 μM)
27 | Cc1ccc(-c2noc([C@H]3C[C@@H]3F)n2)cc1NC(=O)c1cnc2cc(Nc3ccc4c(c3)OCCO4)ccn12 [Compound I-301] | **** (a solubility less than or equal to 2 μM)
28 | Cc1ccc(Nc2ccn3c(C(=O)Nc4cc(-c5noc([C@H]6C[C@@H]6F)n5)ccc4C)cnc3c2)cc1 [Compound I-302] | **** (a solubility less than or equal to 2 μM)
29 | Cc1ccc(-c2noc([C@H]3C[C@@H]3F)n2)cc1NC(=O)c1cnc2cc(N3CCCCC3)ccn12 [Compound I-305] | **** (a solubility less than or equal to 2 μM)
30 | Cc1ccc(-c2noc(C34CCC(CC3)CC4)n2)cc1NC(=O)c1cnc2ccccn12 [Compound I-311] | **** (a solubility less than or equal to 2 μM)

biological target: T2, wtKIT (Homo sapiens, UniProt P10721); experiment: Caliper biochemical assay, wtKIT; conditions: Table 6, read-out: KIT Biochemical IC50 avg
T2 construct: 1888289AM in the reaction mixtures
T2 sequence (P10721 26-976): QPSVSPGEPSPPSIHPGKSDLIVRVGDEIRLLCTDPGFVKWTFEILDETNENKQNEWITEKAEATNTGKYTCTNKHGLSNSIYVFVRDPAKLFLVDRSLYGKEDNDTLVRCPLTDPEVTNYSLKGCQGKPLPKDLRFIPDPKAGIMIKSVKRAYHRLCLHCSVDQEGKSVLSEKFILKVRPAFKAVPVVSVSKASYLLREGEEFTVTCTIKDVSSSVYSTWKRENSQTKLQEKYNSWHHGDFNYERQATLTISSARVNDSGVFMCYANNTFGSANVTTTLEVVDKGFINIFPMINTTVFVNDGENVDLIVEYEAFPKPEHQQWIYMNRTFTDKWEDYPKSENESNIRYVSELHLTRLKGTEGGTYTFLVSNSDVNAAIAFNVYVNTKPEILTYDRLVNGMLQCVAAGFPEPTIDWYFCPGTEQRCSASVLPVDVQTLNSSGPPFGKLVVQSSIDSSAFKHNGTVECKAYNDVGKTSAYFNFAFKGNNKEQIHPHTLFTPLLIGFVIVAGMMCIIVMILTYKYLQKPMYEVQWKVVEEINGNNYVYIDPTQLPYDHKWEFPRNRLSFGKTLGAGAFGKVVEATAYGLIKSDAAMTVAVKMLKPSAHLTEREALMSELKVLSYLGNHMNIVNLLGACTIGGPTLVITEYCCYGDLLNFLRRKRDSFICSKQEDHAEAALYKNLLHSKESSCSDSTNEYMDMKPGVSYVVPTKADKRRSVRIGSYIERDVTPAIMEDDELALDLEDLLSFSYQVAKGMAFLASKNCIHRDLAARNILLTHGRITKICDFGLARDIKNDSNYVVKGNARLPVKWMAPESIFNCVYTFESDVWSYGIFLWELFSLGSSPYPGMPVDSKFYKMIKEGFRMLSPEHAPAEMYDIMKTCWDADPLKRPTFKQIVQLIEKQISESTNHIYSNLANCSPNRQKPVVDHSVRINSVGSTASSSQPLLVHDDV
Method in brief: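 Mobility-shift read-out: after EDTA stop, fluorescent peptide substrate and product resolved electrophoretically on LabChip 3000. Reaction ran 3 h at 25° C with 400 μM ATP, Mn^2+ cofactor, 5.0 nM wtKIT, 1 μM FAM-peptide, pH 7.5 HEPES buffer; no-enzyme wells defined full inhibition.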

Row | Structure (SMILES) | IC50
31 | Cc1ccc(-c2noc([C@H](C)NS(C)(=O)=O)n2)cc1NC(=O)c1cnc2ccccn12 [Compound I-147] | ≤ 50 nM
32 | Cc1ccc(-c2noc([C@@H]3CCN3S(=O)(=O)c3ccccc3)n2)cc1NC(=O)c1cnc2ccccn12 [Compound I-186] | 50 to 500 nM
33 | O=C(Nc1cc(-c2noc([C@H]3CC(F)(F)CN3)n2)ccc1Cl)c1cnc2ccccn12 [Compound I-192] | ≤ 50 nM
34 | COC(=O)CS(=O)(=O)N1CCC1c1nc(-c2ccc(C)c(NC(=O)c3cnc4ccccn34)c2)no1 (stereo not drawn) [Compound I-197] | ≤ 50 nM
35 | Cc1ccc(-c2noc([C@H]3C[C@@H]3F)n2)cc1NC(=O)c1cnc2ccc(N3CCC3)cn12 [Compound I-291] | ≤ 50 nM
36 | Cc1ccc(-c2noc([C@H]3C[C@@H]3F)n2)cc1NC(=O)c1cnc2cc(N3CCCCC3)ccn12 [Compound I-305] | ≤ 50 nM

More lines, now with the values ahead:

Row | IC50 | Structure (SMILES)
37 | ≤ 50 nM | Cc1nc(-c2ccc(C)c(NC(=O)c3cnc4ccc(NCCO)cn34)c2)no1 [Compound I-176]
38 | 50 to 500 nM | Cc1ccc(-c2noc([C@@H]3CCN3S(=O)(=O)C3CCOCC3)n2)cc1NC(=O)c1cnc2ccccn12 [Compound I-187]
39 | ≤ 50 nM | COC(=O)CS(=O)(=O)N1CC[C@H]1c1nc(-c2ccc(C)c(NC(=O)c3cnc4ccccn34)c2)no1 [Compound I-188]
40 | ≤ 50 nM | Cc1ccc(-c2noc([C@H]3CCN3C3CCC3)n2)cc1NC(=O)c1cnc2ccccn12 [Compound I-193]
41 | ≤ 50 nM | Cc1ccc(-c2noc([C@H]3CCN3C(C)C)n2)cc1NC(=O)c1cnc2ccccn12 [Compound I-194]
42 | ≤ 50 nM | Cc1ccc(-c2noc([C@H]3CCN3S(=O)(=O)C3CCOCC3)n2)cc1NC(=O)c1cnc2ccccn12 [Compound I-196]
43 | ≤ 50 nM | Cc1ccc(-c2noc([C@H]3C[C@@H]3F)n2)cc1NC(=O)c1cnc2cc(Nc3ccc4c(c3)OCCO4)ccn12 [Compound I-301]
44 | ≤ 50 nM | Cc1ccc(Nc2ccn3c(C(=O)Nc4cc(-c5noc([C@H]6C[C@@H]6F)n5)ccc4C)cnc3c2)cc1 [Compound I-302]
45 | 50 to 500 nM | Cc1ccc(-c2noc(C34CCC(CC3)CC4)n2)cc1NC(=O)c1cnc2ccccn12 [Compound I-311]

biological target: T3, CSF-1R (Homo sapiens, UniProt P07333); experiment: Caliper biochemical assay, CSF-1R; conditions: Table 6
T3 construct: purchased Invitrogen PV3249 (lot 662393N)
T3 sequence (P07333 20-972): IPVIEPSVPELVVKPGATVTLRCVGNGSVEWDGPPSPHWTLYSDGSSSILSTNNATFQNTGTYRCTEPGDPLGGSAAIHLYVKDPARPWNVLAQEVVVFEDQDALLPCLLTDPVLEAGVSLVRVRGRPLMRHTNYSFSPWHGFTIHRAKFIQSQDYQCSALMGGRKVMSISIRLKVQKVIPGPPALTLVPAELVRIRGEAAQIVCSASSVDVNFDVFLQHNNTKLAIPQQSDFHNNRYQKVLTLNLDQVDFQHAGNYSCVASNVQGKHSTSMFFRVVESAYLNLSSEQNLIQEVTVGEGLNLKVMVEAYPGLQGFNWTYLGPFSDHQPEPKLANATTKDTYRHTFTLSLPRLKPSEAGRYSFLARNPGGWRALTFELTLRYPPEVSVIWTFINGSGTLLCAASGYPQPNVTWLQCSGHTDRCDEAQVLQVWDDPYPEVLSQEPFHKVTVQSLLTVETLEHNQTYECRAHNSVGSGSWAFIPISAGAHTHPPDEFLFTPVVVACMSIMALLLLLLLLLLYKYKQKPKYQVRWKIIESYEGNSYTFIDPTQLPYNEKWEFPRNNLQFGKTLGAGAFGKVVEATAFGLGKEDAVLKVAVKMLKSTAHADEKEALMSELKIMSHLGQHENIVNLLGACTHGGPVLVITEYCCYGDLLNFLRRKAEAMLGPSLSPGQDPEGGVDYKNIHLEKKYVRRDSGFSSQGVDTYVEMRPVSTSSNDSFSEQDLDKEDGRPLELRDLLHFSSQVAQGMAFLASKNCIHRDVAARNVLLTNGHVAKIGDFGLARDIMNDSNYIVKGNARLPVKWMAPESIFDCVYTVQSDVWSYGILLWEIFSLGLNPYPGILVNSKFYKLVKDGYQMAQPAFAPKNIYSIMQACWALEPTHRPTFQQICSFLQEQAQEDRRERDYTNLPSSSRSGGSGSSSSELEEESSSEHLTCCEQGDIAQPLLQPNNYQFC
Description: as §1, §2, §3, §4

Row | Structure (SMILES) | IC50
46 | Cc1ccc(-c2noc([C@H](C)NS(C)(=O)=O)n2)cc1NC(=O)c1cnc2ccccn12 [Compound I-147] | 50 to 500 nM
47 | Cc1ccc(-c2noc([C@@H]3CCN3S(=O)(=O)c3ccccc3)n2)cc1NC(=O)c1cnc2ccccn12 [Compound I-186] | 50 to 500 nM
48 | O=C(Nc1cc(-c2noc([C@H]3CC(F)(F)CN3)n2)ccc1Cl)c1cnc2ccccn12 [Compound I-192] | 50 to 500 nM
49 | COC(=O)CS(=O)(=O)N1CCC1c1nc(-c2ccc(C)c(NC(=O)c3cnc4ccccn34)c2)no1 (stereo not drawn) [Compound I-197] | 50 to 500 nM
50 | Cc1ccc(-c2noc([C@H]3C[C@@H]3F)n2)cc1NC(=O)c1cnc2ccc(N3CCC3)cn12 [Compound I-291] | ≤ 50 nM
51 | Cc1ccc(-c2noc([C@H]3C[C@@H]3F)n2)cc1NC(=O)c1cnc2cc(N3CCCCC3)ccn12 [Compound I-305] | ≤ 50 nM

Next, values leading:

Row | IC50 | Structure (SMILES)
52 | ≤ 50 nM | Cc1nc(-c2ccc(C)c(NC(=O)c3cnc4ccc(NCCO)cn34)c2)no1 [Compound I-176]
53 | 50 to 500 nM | Cc1ccc(-c2noc([C@@H]3CCN3S(=O)(=O)C3CCOCC3)n2)cc1NC(=O)c1cnc2ccccn12 [Compound I-187]
54 | 50 to 500 nM | COC(=O)CS(=O)(=O)N1CC[C@H]1c1nc(-c2ccc(C)c(NC(=O)c3cnc4ccccn34)c2)no1 [Compound I-188]
55 | ≤ 50 nM | Cc1ccc(-c2noc([C@H]3CCN3C3CCC3)n2)cc1NC(=O)c1cnc2ccccn12 [Compound I-193]
56 | ≤ 50 nM | Cc1ccc(-c2noc([C@H]3CCN3C(C)C)n2)cc1NC(=O)c1cnc2ccccn12 [Compound I-194]
57 | ≤ 50 nM | Cc1ccc(-c2noc([C@H]3CCN3S(=O)(=O)C3CCOCC3)n2)cc1NC(=O)c1cnc2ccccn12 [Compound I-196]
58 | ≤ 50 nM | Cc1ccc(-c2noc([C@H]3C[C@@H]3F)n2)cc1NC(=O)c1cnc2cc(Nc3ccc4c(c3)OCCO4)ccn12 [Compound I-301]
59 | ≤ 50 nM | Cc1ccc(Nc2ccn3c(C(=O)Nc4cc(-c5noc([C@H]6C[C@@H]6F)n5)ccc4C)cnc3c2)cc1 [Compound I-302]
60 | ≤ 50 nM | Cc1ccc(-c2noc(C34CCC(CC3)CC4)n2)cc1NC(=O)c1cnc2ccccn12 [Compound I-311]

Reference: US20240254119A1 (THIRD HARMONIC BIO, INC., priority 2022, published 2024)
